# According to ChEMBL document CHEMBL5634079, “Development of novel celastrol-ligustrazine hybrids as potent peroxiredoxin 1 inhibitors against lung cancer” (Eur J Med Chem, 2023):
# pIC50: −log10 of the molar value. Activity calls are given as the source filed them. The rule behind the calls is not given here.
# How the values were obtained:
# Peroxiredoxin-1 = target: T1, Peroxiredoxin-1 (Homo sapiens, UniProt Q06830); assay: Inhibition of PRDX1 (unknown origin) in presence of cofactor A/cofactor B/NADPH incubated for 25 mins; details: read-out: IC50
# T1 sequence (Q06830 whole entry): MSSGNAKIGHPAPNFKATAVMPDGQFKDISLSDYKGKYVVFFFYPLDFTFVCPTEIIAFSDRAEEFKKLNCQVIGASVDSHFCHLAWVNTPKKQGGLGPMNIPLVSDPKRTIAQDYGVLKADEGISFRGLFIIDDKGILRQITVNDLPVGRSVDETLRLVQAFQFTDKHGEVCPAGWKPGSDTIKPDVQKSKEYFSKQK
# [1] = Antiproliferative activity against human LTEP-a2 cells assessed as inhibition of cell growth incubated for 48 hrs by MTT assay; assay type: functional, cell-based; details: LTEP-A2, 48 h
# NCI-H1975 = assay: Antiproliferative activity against human NCI-H1975 cells assessed as inhibition of cell growth incubated for 48 hrs by MTT assay; assay type: functional, cell-based; details: NCI-H1975, 48 h
# MDA-MB-231 = assay: Antiproliferative activity against human MDA-MB-231 cells assessed as inhibition of cell growth incubated for 48 hrs by MTT assay; assay type: functional, cell-based; details: MDA-MB-231, 48 h
# A549 [2] = assay: Inhibition of cell migration in human A549 cells at 2 to 4 uM incubated for 24 hrs by inverted microscopic analysis; assay type: functional, cell-based; details: dose 2-4 µM
# A549 [3] = assay: Inhibition of cell invasion in human A549 cells at 2 to 4 uM by crystal violet staining based microscopic analysis; assay type: functional; details: dose 2-4 µM, time 12-48 hrs, TDE = time-dependent effect
# A549 [4] = assay: Inhibition of cell invasion in human A549 cells incubated for 12 to 48 hrs by crystal violet staining based microscopic analysis; assay type: functional; details: dose 2-4 µM, time 12-48 hrs
# A549 [5] = assay: Induction of apoptosis in human A549 cells assessed as viable cells at 2 uM incubated for 48 hrs by Annexin V-FITC and PI staining based flow cytometric analysis (reference value: 93.8%); assay type: functional; details: read-out: Activity
# A549 [6] = assay: Induction of apoptosis in human A549 cells assessed as early apoptotic cells at 2 uM incubated for 48 hrs by Annexin V-FITC and PI staining based flow cytometric analysis (reference value: 0.76%); assay type: functional
# A549 [7] = assay: Induction of apoptosis in human A549 cells assessed as necrotic cells at 2 uM incubated for 48 hrs by Annexin V-FITC and PI staining based flow cytometric analysis (reference value: 4.68%); assay type: functional
# A549 [8] = assay: Induction of apoptosis in human A549 cells assessed as viable cells at 4 uM incubated for 48 hrs by Annexin V-FITC and PI staining based flow cytometric analysis (reference value: 93.8%); assay type: functional; details: read-out: Activity
# A549 [9] = assay: Induction of apoptosis in human A549 cells assessed as early apoptotic cells at 4 uM incubated for 48 hrs by Annexin V-FITC and PI staining based flow cytometric analysis (reference value: 0.76%); assay type: functional
# A549 [10] = assay: Induction of apoptosis in human A549 cells assessed as necrotic cells at 4 uM incubated for 48 hrs by Annexin V-FITC and PI staining based flow cytometric analysis (reference value: 4.68%); assay type: functional
# A549 [11] = assay: Downregulation of PRDX1 gene expression in human A549 cells at 2 to 4 uM by Q-PCR analysis; assay type: functional, cell-based; details: dose 2-4 µM
# A549 [12] = assay: Downregulation of PRDX1 level in human A549 cells at 2 to 4 uM by Western blot analysis; assay type: functional, cell-based; details: dose 2-4 µM
# A549 [13] = assay: Downregulation of PRDX2 level in human A549 cells at 2 to 4 uM by Western blot analysis; assay type: functional, cell-based; details: dose 2-4 µM
# A549 [14] = assay: Downregulation of PRDX3 level in human A549 cells at 2 to 4 uM by Western blot analysis; assay type: functional, cell-based; details: dose 2-4 µM
# A549 [15] = assay: Downregulation of PRDX4 level in human A549 cells at 2 to 4 uM by Western blot analysis; assay type: functional, cell-based; details: dose 2-4 µM
# A549 [16] = assay: Downregulation of PRDX5 level in human A549 cells at 2 to 4 uM by Western blot analysis; assay type: functional, cell-based; details: dose 2-4 µM
# A549 [17] = assay: Downregulation of PRDX6 level in human A549 cells at 2 to 4 uM by Western blot analysis; assay type: functional, cell-based; details: dose 2-4 µM
# A549 [18] = assay: Induction of cell cycle arrest in human A549 cells assessed as decrease in CDK2 level at 2 to 4 uM by Western blot analysis; assay type: functional, cell-based; details: dose 2-4 µM
# A549 [19] = assay: Induction of apoptosis in human A549 cells assessed as increase in cleaved caspase-3 expression at 2 to 4 uM by Western blot analysis; assay type: functional, cell-based; details: dose 2-4 µM
# A549 [20] = assay: Induction of apoptosis in human A549 cells assessed as increase in cleaved caspase-8 expression at 2 to 4 uM by Western blot analysis; assay type: functional, cell-based; details: dose 2-4 µM
# A549 [21] = assay: Induction of apoptosis in human A549 cells assessed as increase in cleaved PARP expression at 2 to 4 uM by Western blot analysis; assay type: functional, cell-based; details: dose 2-4 µM
# A549 [22] = assay: Induction of apoptosis in human A549 cells assessed as decrease in PARP level at 2 to 4 uM by Western blot analysis; assay type: functional, cell-based; details: dose 2-4 µM
# A549 [23] = assay: Induction of apoptosis in human A549 cells assessed as decrease in PCNA level at 2 to 4 uM by Western blot analysis; assay type: functional, cell-based; details: dose 2-4 µM
# [24] = target: RAF proto-oncogene serine/threonine-protein kinase (Homo sapiens) (UniProt P04049); assay: Inhibition of C-RAF phosphorylation in human A549 cells at 2 to 4 uM by Western blot analysis; assay type: cell-based; details: dose 2-4 µM
# Chain of RAF proto-oncogene serine/threonine-protein kinase (Homo sapiens) (P04049 whole entry): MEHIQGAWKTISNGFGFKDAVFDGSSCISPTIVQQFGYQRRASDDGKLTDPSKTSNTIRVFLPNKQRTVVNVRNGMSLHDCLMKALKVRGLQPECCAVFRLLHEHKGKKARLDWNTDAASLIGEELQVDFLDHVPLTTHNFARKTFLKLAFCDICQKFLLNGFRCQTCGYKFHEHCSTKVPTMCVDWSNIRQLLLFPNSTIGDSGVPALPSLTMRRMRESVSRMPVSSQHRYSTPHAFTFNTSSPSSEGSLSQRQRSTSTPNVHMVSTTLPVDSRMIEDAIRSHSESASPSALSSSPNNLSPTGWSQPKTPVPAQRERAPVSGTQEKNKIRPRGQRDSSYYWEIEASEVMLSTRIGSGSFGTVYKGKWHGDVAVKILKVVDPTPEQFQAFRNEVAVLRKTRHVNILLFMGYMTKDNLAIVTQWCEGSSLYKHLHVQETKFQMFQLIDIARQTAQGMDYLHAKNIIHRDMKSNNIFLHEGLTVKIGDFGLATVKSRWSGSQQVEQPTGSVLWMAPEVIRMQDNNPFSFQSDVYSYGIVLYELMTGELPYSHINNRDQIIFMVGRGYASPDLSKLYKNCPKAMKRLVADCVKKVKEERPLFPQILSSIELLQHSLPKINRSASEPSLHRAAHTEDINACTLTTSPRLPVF
# A549 [25] = assay: Inhibition of ERK phosphorylation in human A549 cells at 2 to 4 uM by Western blot analysis; assay type: cell-based; details: dose 2-4 µM
# [26] = Antitumor activity against mouse Lewis lung carcinoma cell line implanted in C57BL/6J mouse assessed as tumor growth inhibition at 1 mg/kg, ip administered every day for 19 days; assay type: functional; details: 456 h, time 19 day, read-out: TGI
# [27] = Toxicity in C57BL/6J mouse implanted with mouse Lewis lung carcinoma cell line assessed as decrease in body weight at 0.5 to 1 mg/kg, ip administered every day for 19 days; assay type: organism-based; details: in vivo, 456 h, dose 0.5-1 mg/kg, time 19 day
# Lewis lung carcinoma [28] = assay: Antitumor activity against mouse Lewis lung carcinoma cell line implanted in C57BL/6J mouse assessed as tumor cell agglutination at 0.5 to 1 mg/kg, ip administered every day for 19 days by H and E staining based analysis; assay type: functional, organism-based; details: dose 0.5-1 mg/kg, time 19.0 day
# Lewis lung carcinoma [29] = assay: Antitumor activity against mouse Lewis lung carcinoma cell line implanted in C57BL/6J mouse assessed as tumor cell contraction at 0.5 to 1 mg/kg, ip administered every day for 19 days by H and E staining based analysis; assay type: functional, organism-based; details: dose 0.5-1 mg/kg, time 19.0 day
# Lewis lung carcinoma [30] = assay: Antitumor activity against mouse Lewis lung carcinoma cell line implanted in C57BL/6J mouse assessed as nuclear chromatin marginalization at 0.5 to 1 mg/kg, ip administered every day for 19 days by H and E staining based analysis; assay type: functional, organism-based; details: dose 0.5-1 mg/kg, time 19.0 day
# [31] = Toxicity in C57BL/6J mouse implanted with mouse Lewis lung carcinoma cell line assessed as liver damage at 0.5 to 1 mg/kg, ip administered every day for 19 days; assay type: organism-based; details: in vivo, 456 h, dose 0.5-1 mg/kg, time 19 day
# [32] = Toxicity in C57BL/6J mouse implanted with mouse Lewis lung carcinoma cell line assessed as spleen damage at 0.5 to 1 mg/kg, ip administered every day for 19 days; assay type: organism-based; details: in vivo, 456 h, dose 0.5-1 mg/kg, time 19 day
# [33] = Toxicity in C57BL/6J mouse implanted with mouse Lewis lung carcinoma cell line assessed as kidney damage at 0.5 to 1 mg/kg, ip administered every day for 19 days; assay type: organism-based; details: in vivo, 456 h, dose 0.5-1 mg/kg, time 19 day
smiles,measurement,setting,value
CC1=C(OC(=O)/C=C/c2ccccc2)C(=O)C=C2C1=CC=C1[C@@]2(C)CC[C@@]2(C)[C@@H]3C[C@](C)(C(=O)NCc4nc(C)c(C)nc4C)CC[C@]3(C)CC[C@]12C,pIC50,Peroxiredoxin-1,6.79
same,pIC50,[1],5.53
same,pIC50,NCI-H1975,5.70
same,pIC50,MDA-MB-231,5.57
same,inhibition,A549 [2],Active
same,inhibition,A549 [3],Tde
same,inhibition,A549 [4],Dose-Dependent Effect
same,viability at 2 µM,A549 [5],88.4%
same,Activity,A549 [6],3.13%
same,Activity,A549 [7],3.57%
same,viability at 4 µM,A549 [8],45.1%
same,Activity,A549 [9],18.5%
same,Activity,A549 [10],3.04%
same,Activity,A549 [11],Active
same,Activity,A549 [12],Active
same,Activity,A549 [13],Active
same,Activity,A549 [14],Active
same,Activity,A549 [15],Active
same,Activity,A549 [16],Active
same,Activity,A549 [17],Active
same,Activity,A549 [18],Active
same,Activity,A549 [19],Active
same,Activity,A549 [20],Active
same,Activity,A549 [21],Active
same,Activity,A549 [22],Active
same,Activity,A549 [23],Active
same,inhibition,[24],Active
same,inhibition,A549 [25],Active
same,inhibition in vivo at 1 mg/kg,[26],77.4%
same,Activity,[27],Non-Toxic
same,Activity,Lewis lung carcinoma [28],Active
same,Activity,Lewis lung carcinoma [29],Active
same,Activity,Lewis lung carcinoma [30],Active
same,Activity,[31],Non-Toxic
same,Activity,[32],Non-Toxic
same,Activity,[33],Non-Toxic
